Assay results published in patent US20250066351A1, “PYRAZOLO[1,5-A]PYRIDIN-2,3-YL AMIDES AS KV7 CHANNEL ACTIVATORS” (Biohaven Therapeutics Ltd., priority 2022, published 2025).

Assays:
hKv7.2/7.3 [1] = biological target: T1, hKv7.2/7.3 (Homo sapiens, UniProt O43525+O43526); experiment: Kv7.2/7.3 Activation Assay, QPatch planar patch-clamp single concentration screen; format: cell-based; conditions: increase in current over baseline, Kv7.2/Kv7.3 co-expressing HEK cells, compound concentration 3 μM, steady-state current at end of 2 s pulse to −30 mV
T1 construct: host or cells: HEK cells, tetracycline-inducible expression
Outline: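 Tetracycline-induced HEK cells expressing hKv7.2/7.3, recorded 24 h post-induction by automated whole-cell patch clamp (−80 mV hold, 2 s step to −30 mV). Compound tested at 3 μM (0.1% DMSO); fold increase in steady-state current at end of the −30 mV step over baseline.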

hKv7.2/7.3 [2] = biological target: T1, hKv7.2/7.3; experiment: Kv7.2/7.3 Thallium Flux Assay; format: cell-based; set-up: key to Thallium Flux Kv7.2/7.3 Activity: 3-10 μM (*); 1-3 μM (**); <1 μM (***); NC stands for Not Calculable; conditions: EC50 of Kv7.2/Kv7.3 activation, responses normalized to retigabine 30 μM
From the text: The Thallium Flux Assay is used as a surrogate indicator of potassium channel activity.
The experimental protocol was adapted from the FluxOR™ II Green Potassium Ion Channel Assay User Guide (Pub. No. MAN0016084, Invitrogen). Conditions were optimized for the Kv7.2/7.3 cell line.
Cell Line: The hKv7.2/7.3 cell line was obtained from Chantest (Cleveland, OH 44128) cat. #CT6147.
Cell Culture: Kv7.2/7.3 cells were maintained in a media containing DMEM/F12; 50/50 (GIBCO cat. #11330), 10% Fetal Bovine Serum (FBS) (GIBCO cat. #26140), 100 units/mL Penicillin-Streptomycin (GIBCO cat. #15140), 0.005 mg/ml Blasticidin (SIGMA 15205), 0.5 mg/mL Geneticin (GIBCO cat. #10131), and 0.1 mg/mL Zeocin (GIBCO cat. #R25001). One day prior to experimentation, cells were plated in 96 well clear bottom plates (Corning cat. #353219) in a media without Blasticidin, Geneticin, or Zeocin. Channel expression was induced by adding tetracycline (Bioline cat. #BIO87030) at a final concentration of 10 ng/mL.
Compound Plates: The test compound is diluted in a mixture of 0.1% DMSO/extracellular solution with an eight-point concentration range from 0.014 μM to 30 μM. Serial dilutions were made on a Biomek NXP (BECKMAN COULTER).
Measurement and data analysis: A plate reader (Enspire, Perkin Elmer) is used to characterize the ion-channel modulating properties of novel compounds using an excitation wavelength of 475 nm and an emission wavelength of 530 nm. After a 15 sec baseline measurement, the stimulus buffer containing thallium and potassium is injected. A final endpoint measure is taken after 90 sec. Responses are normalized to positive control (retigabine, 30 μM max). Mean normalized responses at each concentration tested are fit to the standard Hill equation to generate an EC50 and maximal response.

QPatch Kv7.2/7.3 Activity (hKv7.2/7.3 [1]) | EC50 (hKv7.2/7.3 [2]) | Thallium Flux Kv7.2/7.3 Activity (hKv7.2/7.3 [2]) | Compound
– | < 1 µM | – | N#Cc1ccn2nc(NC(=O)C[C@H]3CC(F)(F)C3(F)F)c(C3CCC3)c2c1 [Example 94, (S)-N-(5-cyano-3-cyclobutylpyrazolo[1,5-a]pyridin-2-yl)-2-(2,2,3,3-tetrafluorocyclobutyl) acetamide]
+ (2.0-3.99 (+)) | < 1 µM | – | CC(C)(O)c1ccn2nc(NC(=O)C[C@H]3CC(F)(F)C3(F)F)c(C3CCC3)c2c1 [Example 95, (S)-N-(3-cyclobutyl-5-(2-hydroxypropan-2-yl)pyrazolo [1,5-a]pyridin-2-yl)-2-(2,2,3,3-tetrafluorocyclobutyl) acetamide]
– | – | NC | N#Cc1ccn2nc(NC(=O)C[C@@H]3CC(F)(F)C3(F)F)c(C3CCC3)c2c1 [Example 96, (R)-N-(5-cyano-3-cyclobutylpyrazolo[1,5-a]pyridin-2-yl)-2-(2,2,3,3-tetrafluorocyclobutyl) acetamide]
– | < 1 µM | – | CC(C)(O)c1ccn2nc(NC(=O)C[C@@H]3CC(F)(F)C3(F)F)c(C3CCC3)c2c1 [Example 98, (R)-N-(3-cyclobutyl-5-(2-hydroxypropan-2-yl)pyrazolo[1,5-a]pyridin-2-yl)-2-(2,2,3,3-tetrafluorocyclobutyl) acetamide]

Continued, compound first:

Compound | QPatch Kv7.2/7.3 Activity (hKv7.2/7.3 [1]) | EC50 (hKv7.2/7.3 [2]) | Thallium Flux Kv7.2/7.3 Activity (hKv7.2/7.3 [2])
CC(C)(C)CC(=O)Nc1nn2ccc(C#N)cc2c1C1CCC1 [Example 3, N-(5-cyano-3-cyclobutylpyrazolo[1,5-a]pyridin-2-yl)-3,3-dimethylbutanamide] | + (2.0-3.99 (+)) | < 1 µM | –
CC(C)(O)CC(=O)Nc1nn2ccc(C(F)(F)F)cc2c1-c1ccc(F)cc1 [Example 14, N-(3-(4-fluorophenyl)-5-(trifluoromethyl)pyrazolo [1,5-a]pyridin-2-yl)-3-hydroxy-3-methylbutanamide] | + (2.0-3.99 (+)) | < 1 µM | –
CC(C)(C)CC(=O)Nc1nn2ccc(C(C)(C)O)cc2c1C1CCC1 [Example 57, N-(3-cyclobutyl-5-(2-hydroxypropan-2-yl)pyrazolo[1,5-a]pyridin-2-yl)-3,3-dimethylbutanamide] | ++ (4.0-5.99 (++)) | < 1 µM | –
CC(C)(C)CC(=O)Nc1nn2ccc(C#N)cc2c1C(C)(C)C [Example 88, N-(3-(tert-butyl)-5-cyanopyrazolo[1,5-a]pyridin-2-yl)-3,3-dimethylbutanamide] | – | – | NC
CC(C)(C)c1c(NC(=O)CC(C)(C)C(F)(F)F)nn2ccc(C#N)cc12 [Example 89, N-(3-(tert-butyl)-5-cyanopyrazolo[1,5-a]pyridin-2-yl)-4,4,4-trifluoro-3,3-dimethylbutanamide] | – | – | NC
CC(C)(C)c1c(NC(=O)C[C@@H]2CC(F)(F)C2(F)F)nn2ccc(C#N)cc12 [Example 90, (R)-N-(3-(tert-butyl)-5-cyanopyrazolo[1,5-a]pyridin-2-yl)-2-(2,2,3,3-tetrafluorocyclobutyl) acetamide] | – | – | NC
CC(C)(C)CC(=O)Nc1nn2ccccc2c1C#N [Example 91, N-(3-cyanopyrazolo [1,5-a]pyridin-2-yl)-3,3-dimethylbutanamide] | – | – | NC
CCOC(=O)c1c(NC(=O)CC(C)(C)C)nn2ccccc12 [Example 92, ethyl 2-(3,3-dimethylbutanamido) pyrazolo[1,5-a]pyridine-3-carboxylate] | – | – | NC
CC(C)(C)CC(=O)Nc1nn2ccccc2c1C(C)(C)O [Example 93, N-(3-(2-hydroxypropan-2-yl)pyrazolo[1,5-a]pyridin-2-yl)-3,3-dimethylbutanamide] | – | < 1 µM | –
N#Cc1ccn2nc(NC(=O)CC3(C(F)(F)F)CC3)c(C3CCC3)c2c1 [Example 97, N-(5-cyano-3-cyclobutylpyrazolo[1,5-a]pyridin-2-yl)-2-(1-(trifluoromethyl)cyclopropyl)acetamide] | – | – | NC
